From the supplement of paper PMC8671470

What was measured:
Conditions in all cases: 72 h
HL-60 [1] = assay: cell viability (% survival relative to DMSO control); higher = less cytotoxic
In short: (§1)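 Area under the curve, where listed, was derived from four-parameter log-logistic fits with drc and PharmacoGx. These fits used CellTiter-Glo viability from HL-60 cells in RPMI 1640 with 10% FBS, normalised to DMSO wells and wells holding 10 μM proteasome inhibitor. The full library was rescreened on 384-well plates in duplicate at five tenfold concentrations, 1–10,000 nM, with DMSO or 100 nM of one of three metabolic inhibitors, for 72 h at 37 °C, 5% CO2.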

HL-60 [2] = assay: area under dose-response curve (viability, 1 nM-10 uM) (fraction (0-1)); higher = more sensitive
In short: as §1

MOLM-13 [3] = test system: MOLM-13
In short: (§2)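 The IC50 was derived from log-logistic dose–response fitting. Each of fifteen myeloid leukaemia cell lines, seeded in RPMI 1640 within its linear growth range, was exposed in 384-well plates to five tenfold doses (1 to 10,000 nM) in duplicate for 72 h at 37 °C and 5% CO2. Luminescent ATP viability readings were normalised to vehicle and to a positive control at 10 µM before four-parameter curve fitting.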

KG-1 [4] = test system: KG-1
In short: as §2

MV4-11 [5] = test system: MV4-11
In short: as §2

THP-1 [6] = test system: THP-1
In short: as §2

KU-812 [7] = test system: KU-812
In short: as §2

HL-60 [8] = test system: HL-60
In short: as §2

K-562 [9] = test system: K-562
In short: as §2

KCL-22 [10] = test system: KCL-22
In short: as §2

LAMA-84 [11] = test system: LAMA-84
In short: as §2

SHI-1 [12] = test system: SHI-1
In short: as §2

NOMO-1 [13] = test system: NOMO-1
In short: as §2

ML-2 [14] = test system: ML-2
In short: as §2

HEL [15] = test system: HEL
In short: as §2

BV-173 [16] = test system: BV-173
In short: as §2

Mono-Mac-6 [17] = test system: Mono-Mac-6
In short: as §2

MOLM-13 [18] = assay: cell viability (% survival relative to DMSO control, bortezomib = 0%); higher = less cytotoxic
In short: (§3)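 Percent survival is reported as the mean of duplicate wells. Cells from 10 AML and 5 CML lines were plated in 384-well plates containing compounds at 1, 10, 100, 1000 or 10000 nM and kept for 72 h at 37 °C in 5% CO2. Readout used CellTiter-Glo luminescence, scaled so that vehicle equals 100% and a 10 µM positive control equals 0%.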

KG-1 [19] = assay: as above
In short: as §3

MV4-11 [20] = assay: as above
In short: as §3

THP-1 [21] = assay: as above
In short: as §3

KU-812 [22] = assay: as above
In short: as §3

HL-60 [23] = assay: as above
In short: as §3

K-562 [24] = assay: as above
In short: as §3

KCL-22 [25] = assay: as above
In short: as §3

LAMA-84 [26] = assay: as above
In short: as §3

SHI-1 [27] = assay: as above
In short: as §3

NOMO-1 [28] = assay: as above
In short: as §3

ML-2 [29] = assay: as above
In short: as §3

HEL [30] = assay: as above
In short: as §3

BV-173 [31] = assay: as above
In short: as §3

Mono-Mac-6 [32] = assay: as above
In short: as §3

O=C(Nc1ccccc1)c1cc([N+](=O)[O-])ccc1Cl [GW-9662]
cell viability [%], HL-60 [1]
Conditions	0.001 µM	0.01 µM	0.1 µM	1 µM	10 µM
co-treatment: AZD3965 100 nM	104	97.15	102	100	90.1
co-treatment: DMSO vehicle	100.8	103.27	100	100.8	95.6
co-treatment: GSK2194069 100 nM	99.4	92.6	98.7	96.1	87.2
co-treatment: pictilisib 100 nM	106.5	96.8	97.9	99.3	94.4

HL-60 [2]
Conditions	area under dose-response curve
co-treatment: AZD3965 100 nM	< 0.0301
co-treatment: DMSO vehicle	< 0.0301
co-treatment: GSK2194069 100 nM	< 0.0301
co-treatment: pictilisib 100 nM	< 0.0301

Clc1ccccc1CN1CCc2sccc2C1 [Ticlopidine]
Conditions	IC50 (cell viability) [µM]
BV-173 [16]	> 10
HEL [15]	> 10
HL-60 [8]	> 10
K-562 [9]	> 10
KCL-22 [10]	> 10
KG-1 [4]	> 10
KU-812 [7]	> 10
LAMA-84 [11]	> 10
ML-2 [14]	> 10
MOLM-13 [3]	> 10
MV4-11 [5]	> 10
Mono-Mac-6 [17]	> 10
NOMO-1 [13]	> 10
SHI-1 [12]	> 10
THP-1 [6]	> 10

CC(C(=O)O)C(=O)O [methylmalonate]
cell viability [%], HL-60 [1]
Conditions	0.001 µM	0.01 µM	0.1 µM	1 µM	10 µM
co-treatment: AZD3965 100 nM	100	96.1	81.8	107	98.6
co-treatment: DMSO vehicle	97.43	99.6	96.753	100.6	99
co-treatment: GSK2194069 100 nM	101	97.9	95.2	106	103.3
co-treatment: pictilisib 100 nM	105	103	87.7	84.2	108.9

HL-60 [2]
Conditions	area under dose-response curve
co-treatment: AZD3965 100 nM	< 0.0301
co-treatment: DMSO vehicle	< 0.0301
co-treatment: GSK2194069 100 nM	< 0.0301
co-treatment: pictilisib 100 nM	< 0.0301

Cc1c2c(=O)n(-c3ccccc3Cl)[nH]c2cc(=O)n1Cc1ccccn1
cell viability [%], HL-60 [1]
Conditions	0.001 µM	0.01 µM	0.1 µM	1 µM	10 µM
co-treatment: AZD3965 100 nM	103	103	96.9	98.6	96.6
co-treatment: DMSO vehicle	103	103	99.6	99.25	101
co-treatment: GSK2194069 100 nM	101	105	98.8	101	96.5
co-treatment: pictilisib 100 nM	96.69	103	100	95.2	94.8

HL-60 [2]
Conditions	area under dose-response curve
co-treatment: AZD3965 100 nM	< 0.0301
co-treatment: DMSO vehicle	< 0.0301
co-treatment: GSK2194069 100 nM	< 0.0301
co-treatment: pictilisib 100 nM	< 0.0301

CC(C(=O)O)c1cccc(C(=O)c2ccccc2)c1 (configuration not stated) [Ketoprofen]
Conditions	IC50 (cell viability) [µM]
BV-173 [16]	> 10
HEL [15]	> 10
HL-60 [8]	> 10
K-562 [9]	> 10
KCL-22 [10]	> 10
KG-1 [4]	> 10
KU-812 [7]	> 10
LAMA-84 [11]	> 10
ML-2 [14]	> 10
MOLM-13 [3]	> 10
MV4-11 [5]	> 10
Mono-Mac-6 [17]	> 10
NOMO-1 [13]	> 10
SHI-1 [12]	> 10
THP-1 [6]	> 10

CN(C/C=C/C#CC(C)(C)C)Cc1cccc2ccccc12 [Terbinafine]
Conditions	IC50 (cell viability) [µM]
BV-173 [16]	> 10
HEL [15]	> 10
HL-60 [8]	> 10
K-562 [9]	> 10
KCL-22 [10]	> 10
KG-1 [4]	> 10
KU-812 [7]	> 10
LAMA-84 [11]	> 10
ML-2 [14]	> 10
MOLM-13 [3]	> 10
MV4-11 [5]	> 10
Mono-Mac-6 [17]	> 10
NOMO-1 [13]	> 10
SHI-1 [12]	> 10
THP-1 [6]	> 10

cell viability [%]
Conditions	1 nM	10 nM	100 nM	1000 nM	10000 nM
BV-173 [31]	113	92	93.3	96.1	85.3
HEL [30]	101	91.1	110	96.8	96.6
HL-60 [23]	104	107	118	105	93.8
K-562 [24]	97.8	98	106	86.1	88.8
KCL-22 [25]	101	96.2	101	104	93.2
KG-1 [19]	94.1	106	90.9	95.5	92.6
KU-812 [22]	107	95.3	120	94.8	92.9
LAMA-84 [26]	104	97.7	110	101	93.9
ML-2 [29]	102	101	92.2	108	90.3
MOLM-13 [18]	105	98.5	133	90.2	113
MV4-11 [20]	93.7	92.8	102	111	109
Mono-Mac-6 [32]	103	96.2	102	98.7	91.2
NOMO-1 [28]	99.3	101	96.7	103	96.9
SHI-1 [27]	99.4	101	108	99.5	98.9
THP-1 [21]	102	94.6	92	100	94.4
